According to US7598382B2, “Aryl substituted imidazoquinolines” (Coley Pharmaceutical Group, Inc., priority 2002, dated 2009):
Where a name gives a salt, the structure may show the parent alone.

Which melting point does the source give for `CCCc1nc2c(N)nc3cc(CCc4ccc5sc(C)nc5c4)ccc3c2n1CC(C)C` (as salt: HCl) [Example 457, 7-[2-(2-Methylbenzothiazol-5-yl)ethyl]-1-(2-methylpropyl)-2-propyl-1H-imidazo[4,5-c]quinolin-4-amine] here?
The melting point was over 250 °C.

Which melting point does the source give for `CCOCc1nc2c(N)nc3ccc(-c4cncc(CO)c4)cc3c2n1CC(C)(C)O` [Example 150, 1-[4-Amino-2-ethoxymethyl-8-(5-hydroxymethylpyridin-3-yl)-1H-imidazo[4,5-c]quinolin-1-yl]-2-methylpropan-2-ol] here?
Its melting point is 230 to 232 °C.

For `CCOCc1nc2c(N)nc3cc(-c4cncc(CO)c4)ccc3c2n1CCCOC` [Example 167, 2-Ethoxymethyl-1-(3-methoxypropyl)-7-(5-hydroxymethylpyridin-3-yl)-1H-imidazo[4,5-c]quinolin-4-amine], which melting point is on record?
The melting point was 198 to 199 °C.

With `CCOCc1nc2c(N)nc3cc(-c4cccnc4)ccc3c2n1CCCOC` [Example 164, 2-Ethoxymethyl-1-(3-methoxypropyl)-7-(pyridin-3-yl)-1H-imidazo[4,5-c]quinolin-4-amine] as the compound, how does the melting point read?
Its melting point is 151 to 152 °C.

With `CCc1nc2c(N)nc3ccc(-c4cccnc4)cc3c2n1CC(C)C` [Example 17, 2-Ethyl-1-isobutyl-8-(pyridin-3-yl)-1H-imidazo[4,5-c]quinolin-4-amine] as the compound, how does the melting point read?
The melting point was over 250 °C.

Which melting point does the source give for `CCOCc1nc2c(N)nc3cc(-c4cccnc4)ccc3c2n1CC1CCN(C(=O)N2CCOCC2)CC1` (hydrate or solvate) [Example 180, 2-Ethoxymethyl-1-{[1-(morpholin-4-ylcarbonyl)piperidin-4-yl]methyl}-7-(pyridin-3-yl)-1H-imidazo[4,5-c]quinolin-4-amine] here?
Its melting point is 224 to 225 °C.

Which melting point does the source give for `CCCc1nc2c(N)nc3cc(-c4cccnc4)ccc3c2n1CCCCNC(=O)OC(C)(C)C` [Example 158, tert-Butyl {4-[4-amino-2-propyl-7-(pyridin-3-yl)-1H-imidazo[4,5-c]quinolin-1-yl]butyl}carbamate] here?
Its melting point is 136 to 138 °C.

Which melting point does the source give for `COCCc1nc2c(N)nc3cc(-c4ccccc4)ccc3c2n1CC(C)(C)O` [Example 136, 1-[4-Amino-2-(2-methoxyethyl)-7-phenyl-1H-imidazo[4,5-c]quinolin-1-yl]-2-methylpropan-2-ol] here?
The melting point was 226 to 227 °C.

Which melting point does the source give for `CCOCc1nc2c(N)nc3cc(-c4cccnc4)ccc3c2n1CCCCS(N)(=O)=O` [Example 368, 4-[4-Amino-2-ethoxymethyl-7-(pyridin-3-yl)-1H-imidazo[4,5-c]quinolin-1-yl]butane-1-sulfonamide] here?
The melting point was 250 to 251.5 °C.

With `CCCc1nc2c(N)nc3cc(CCc4ccc(C)s4)ccc3c2n1CC(C)C` [Example 461, 1-(2-Methylpropyl)-7-[2-(5-methylthiophen-2-yl)ethyl]-2-propyl-1H-imidazo[4,5-c]quinolin-4-amine] as the compound, how does the melting point read?
The melting point was 150 to 152 °C.

With `COCc1nc2c(N)nc3cc(-c4cccnc4)ccc3c2n1CC(C)(C)O` [Example 396, 1-[4-Amino-2-methoxymethyl-7-(pyridin-3-yl)-1H-imidazo[4,5-c]quinolin-1-yl]-2-methylpropan-2-ol] as the compound, how does the melting point read?
Its melting point is 225 to 225.5 °C.

Which melting point does the source give for `CCCCn1c(COCC)nc2c(N)nc3ccc(-c4ccccc4)cc3c21` [Example 18, 1-Butyl-2-ethoxymethyl-8-phenyl-1H-imidazo[4,5-c]quinolin-4-amine] here?
The melting point was 186 to 187 °C.

For `CC(C)Cn1cnc2c(N)nc3ccc(CCc4ccccc4)cc3c21` [Example 123, 1-(2-Methylpropyl)-8-phenethyl-1H-imidazo[4,5-c]quinolin-4-amine], which melting point is on record?
The melting point was 175 to 178 °C.

Which melting point does the source give for `CCOCc1nc2c(N)nc3cc(-c4cccnc4)ccc3c2n1CCN1CCNCC1` [Example 414, 2-Ethoxymethyl-1-(2-piperazin-1-ylethyl)-7-(pyridin-3-yl)-1H-imidazo[4,5-c]quinolin-4-amine] here?
Its melting point is 208 to 211 °C.

Which melting point does the source give for `CCCc1nc2c(N)nc3cc(/C=C/c4cccnc4)ccc3c2n1CC(C)C` (hydrate or solvate) [Example 446, (E)-1-(2-Methylpropyl)-2-propyl-7-[2-(pyridin-3-yl)vinyl]-1H-imidazo[4,5-c]quinolin-4-amine] here?
The melting point was 190 to 192 °C.

With `CCOCc1nc2c(N)nc3cc(-c4cccc(CS(N)(=O)=O)c4)ccc3c2n1CC1CCOCC1` [Example 480, {3-[4-Amino-2-ethoxymethyl-1-(tetrahydropyran-4-ylmethyl)-1H-imidazo[4,5-c]quinolin-7-yl]phenyl}methanesulfonamide] as the compound, how does the melting point read?
Its melting point is 254 to 255 °C.

With `CCOCc1nc2c(N)nc3cc(-c4cccnc4)ccc3c2n1CC1CCCCC1` [Example 438, 1-Cyclohexylmethyl-2-ethoxymethyl-7-(pyridin-3-yl)-1H-imidazo[4,5-c]quinolin-4-amine] as the compound, how does the melting point read?
The melting point was 146 to 148 °C.

With `CCCc1nc2c(N)nc3cc(-c4cccnc4)ccc3c2n1CC1CCN(S(C)(=O)=O)CC1` (as salt: HCl) (hydrate or solvate) [Example 411, 1-{[1-(Methanesulfonyl)piperidin-4-yl]methyl}-2-propyl-7-(pyridin-3-yl)-1H-imidazo[4,5-c]quinolin-4-amine] as the compound, how does the melting point read?
The melting point was over 250 °C.

With `CCOCc1nc2c(N)nc3cc(-c4cccc(C#N)c4)ccc3c2n1CC(C)C` [Example 111, 3-(4-Amino-2-ethoxymethyl-1-(2-methylpropyl)-1H-imidazo[4,5-c]quinolin-7-yl)benzonitrile] as the compound, how does the melting point read?
Its melting point is 210 to 211 °C.

For `CCOCc1nc2c(N)nc3cc(-c4cccc(C(=O)N5CCOCC5)c4)ccc3c2n1CCCOC` [Example 174, {3-[4-Amino-2-ethoxymethyl-1-(3-methoxypropyl)-1H-imidazo[4,5-c]quinolin-7-yl]phenyl}morpholin-4-ylmethanone], which melting point is on record?
The melting point was 174 to 176 °C.

For `CCOCc1nc2c(N)nc3cc(-c4ccccc4)ccc3c2n1CCOc1ccccc1` [Example 197, 2-Ethoxymethyl-1-(2-phenoxyethyl)-7-phenyl-1H-imidazo[4,5-c]quinolin-4-amine], which melting point is on record?
Its melting point is 159 to 160 °C.

For `CCOCc1nc2c(N)nc3cc(-c4cccnc4)ccc3c2n1CC1CCN(C(=O)C2CCCO2)CC1` (stereo not drawn) [Example 182, 2-Ethoxymethyl-7-(pyridin-3-yl)-1-{[1-(tetrahydrofuran-2-ylcarbonyl)piperidin-4-yl]methyl}-1H-imidazo[4,5-c]quinolin-4-amine], which melting point is on record?
The melting point was 191 to 192 °C.

With `CC(C)(O)Cn1cnc2c(N)nc3cc(Cc4ccccc4)ccc3c21` [Example 431, 1-(4-Amino-7-benzyl-1H-imidazo[4,5-c]quinolin-1-yl)-2-methylpropan-2-ol] as the compound, how does the melting point read?
Its melting point is 228 to 229 °C.

For `CCOCc1nc2c(N)nc3cc(-c4cccnc4)ccc3c2n1C[C@H](O)CO` [Example 490, (S)-3-[4-Amino-2-ethoxymethyl-7-(pyridin-3-yl)-1H-imidazo[4,5-c]quinolin-1-yl]propane-1,2-diol], which melting point is on record?
Its melting point is 203 to 204 °C.

For `CCOCc1nc2c(N)nc3c(-c4cccc(CS(N)(=O)=O)c4)cccc3c2n1CC(C)(C)O` [Example 484, {3-[4-Amino-2-ethoxymethyl-1-(2-hydroxy-2-methylpropyl)-1H-imidazo[4,5-c]quinolin-6-yl]phenyl}methanesulfonamide], which melting point is on record?
The melting point was 234 to 235 °C.

Which melting point does the source give for `COCc1nc2c(N)nc3cc(-c4ccc(OC)nc4)ccc3c2n1CC(C)(C)O` [Example 398, 1-[4-Amino-2-methoxymethyl-7-(6-methoxypyridin-3-yl)-1H-imidazo[4,5-c]quinolin-1-yl]-2-methylpropan-2-ol] here?
Its melting point is 190 to 190.5 °C.

Which melting point does the source give for `COCc1nc2c(N)nc3cc(-c4cncc(CO)c4)ccc3c2n1CC(C)(C)O` (hydrate or solvate) [Example 402, 1-[4-Amino-7-(5-hydroxymethylpyridin-3-yl)-2-methoxymethyl-1H-imidazo[4,5-c]quinolin-1-yl]-2-methylpropan-2-ol] here?
Its melting point is 224 to 225 °C.

For `CCOCc1nc2c(N)nc3cc(-c4ccccc4)ccc3c2n1CCCOC` [Example 163, 2-Ethoxymethyl-1-(3-methoxypropyl)-7-phenyl-1H-imidazo[4,5-c]quinolin-4-amine], which melting point is on record?
The melting point was 146 to 147 °C.

For `COCc1nc2c(N)nc3cc(-c4cncnc4)ccc3c2n1CC(C)(C)O` [Example 395, 1-[4-Amino-2-methoxymethyl-7-(pyrimidin-5-yl)-1H-imidazo[4,5-c]quinolin-1-yl]-2-methylpropan-2-ol], which melting point is on record?
Its melting point is 220 to 220.5 °C.

With `CCOCc1nc2c(N)nc3cc(-c4ccccc4)ccc3c2n1CC(C)C` [Example 108, 2-Ethoxymethyl-1-(2-methylpropyl)-7-phenyl-1H-imidazo[4,5-c]quinolin-4-amine] as the compound, how does the melting point read?
The melting point was 176.5 to 178 °C.

With `CCc1nc2c(N)nc3cc(-c4cccnc4)ccc3c2n1CC1CCN(C(=O)C(C)C)CC1` (hydrate or solvate) [Example 407, 1-{4-[4-Amino-2-ethyl-7-(pyridin-3-yl)-1H-imidazo[4,5-c]quinolin-1-ylmethyl]piperidin-1-yl}-2-methylpropan-1-one] as the compound, how does the melting point read?
The melting point was 189 to 191 °C.

For `CC(=O)c1cccc(-c2ccc3nc(N)c4ncn(CC(C)C)c4c3c2)c1` [Example 120, 1-{3-[4-Amino-1-(2-methylpropyl)-1H-imidazo[4,5-c]quinolin-8-yl]phenyl}ethanone], which melting point is on record?
The melting point was 217 to 218 °C.

For `CCCc1nc2c(N)nc3cc(CCc4ccc(OC)cc4)ccc3c2n1CC(C)C` (as salt: HCl) [Example 459, 7-[2-(4-Methoxyphenyl)ethyl]-1-(2-methylpropyl)-2-propyl-1H-imidazo[4,5-c]quinolin-4-amine], which melting point is on record?
Its melting point is over 250 °C.

Which melting point does the source give for `CCCOc1ccccc1-c1ccc2c(c1)nc(N)c1nc(COCC)n(CC(C)C)c12` [Example 109, 2-Ethoxymethyl-1-(2-methylpropyl)-7-(2-propoxyphenyl)-1H-imidazo[4,5-c]quinolin-4-amine] here?
Its melting point is 168 to 169 °C.

For `CCOCc1nc2c(N)nc3cc(-c4ccccc4)ccc3c2n1CC(C)(C)NC(=O)C1CCCCC1` [Example 202, Cyclohexane N-[2-(4-amino-2-ethoxymethyl-7-phenyl-1H-imidazo[4,5-c]quinolin-1-yl)-1,1-dimethylethyl]carboxamide], which melting point is on record?
Its melting point is 195 to 198 °C.

Which melting point does the source give for `CCOc1ccccc1-c1ccc2c(c1)nc(N)c1nc(COC)n(CC(C)(C)O)c12` [Example 394, 1-[4-Amino-7-(2-ethoxyphenyl)-2-methoxymethyl-1H-imidazo[4,5-c]quinolin-1-yl]-2-methylpropan-2-ol] here?
Its melting point is 173 to 175 °C.
